Data reported in patent US7439040B2, “Protease regulator screening assay” (Novartis Vaccines and Diagnostics, Inc., priority 1996, dated 2008).
Values joined by “and” are separate entries in the source; they are usually repeats but may differ in a detail not shown here. Equal values may be shown once.

Tests used:
Assay type in all cases: biochemical
[1] = molecular target: T1, HCV protease (Hepatitis C virus genotype 1a, UniProt P26664); experiment: NS5A/5B as substrate to screen HCV protease inhibitor candidates; settings: control setup, pro A-NS5 substrate
T1 construct: Peptide 4A, a co-factor of the NS3 HCV protease; made in house
Description: The substrate polypeptide, (10 μg/well) in 200 μl was added to a human IgG coated plate and incubated for one hour. The plate was washed five times with wash buffer. The inhibitor, if any, was pre-incubated (diluted to 1 uM) with HCV protease, NS4A (0.2 uM) for one hour at room temperature. Peptide 4A, a co-factor of the NS3 HCV protease was added in different concentrations to all wells containing the protease mixture (20X concentration is 4 μM). […] The final concentration of the NS4A in each well was 4 μM. The plate was washed five times with wash buffer. Mouse anti-FLAG monoclonal antibody in the amount of 200 μl (1:200d from stock solution) was added to the designated wells and incubated one hour at 37° C. The plate was washed five times with wash buffer. Affinity purified goat anti-mouse (H+L)-HRP (Fab′)2 conjugate (1:5000d) in the amount of 200 μl was added to all the reaction wells except the blank well and incubated one hour at 37° C. The plate was washed five times with wash buffer. Then the plate was developed with OPD substrate for 30 minutes at room temperature. The plate was read with a microtiter plate reader at 490/620 nm.
Using NS5A/5B as Substrate to Screen HCV Protease Inhibitor Candidates
A target polypeptide was prepared having an anchor region, a linker region, a protease target site of HCV NS5A/5B, another linker region, and a FLAG epitope tag region. […]

[2] = molecular target: T1, HCV protease; experiment: HCV protease inhibitor screening assay using NS5A/5B cleavage site (pro A-NS5 substrate, anti-FLAG/HRP OD readout)
Text: The HCV Protease Inhibitor Screening Assay Using NS5A/5B as Cleavage Site Expression Construct and its Encoded Polypeptide
A fragment encoding HCV NS5 peptide protease target site was inserted in frame into the polylinker region of pEZZ18 so that it is connected at the C-terminal region of Protein A. The NS5 peptide protease target site includes the NS5A and NS5B cleavage site, i.e., amino acids 2420 and 2421, 7 amino acids at the N-terminal side of the cleavage site, and 8 amino acids at the C-terminal side of the cleavage site.
Another sequence fragment encoding the FLAG tag was inserted in frame at the C-terminal end of the NS5 peptide protease target site. The sequence fragment encodes three FLAG tags alternately spaced with two 4-Glycine spacers.
Microwell plates containing 96 wells were prepared by coating the wells with IgG. Then the plates were dried. The purified protein NS5 was incubated with the dry plates for 1 hour at 37° C. to allow binding of the Protein A region of the protein to the IgG in the microwells.
Protease was prepared by elution from a nickel column. Various concentrations of HCV protease were prepared. The protease was incubated with and without a known protease inhibitor, DCIC (di-chloro-iso-coumarin). The incubation was for 1 hour at room temperature. Subsequently the protease was transferred to the coated plates. […]
Diluted monoclonal anti-FLAG mouse antibodies (available from Kodak) were added to the HCV protease treated plates and incubated with the plates for 1 hour at 37° C. The plates were subsequently washed and incubated with affinity purified goat anti-mouse-HRP (horse radish peroxidase) conjugates for 1 hour at 37° C. Then the plates were washed, and incubated with a developer such as o-phenylenediamine dihydrochloride (OPD). The optical density (OD) was determined at 492 and 620 nm settings.

[3] = molecular target: T2, NS3 HCV protease (Hepatitis C virus genotype 1a, UniProt P26664); experiment: HCV protease inhibitor screening assay using NS4B/5A cleavage site with co-factor peptide 4A; settings: DCIC 1 μM, duplicates
T2 construct: Peptide 4A, a co-factor of the NS3 HCV protease; made in house
Description: The HCV Protease Inhibitor Screening Assay Using NS4B/5A Cleavage Site
Plate: Human IgG coated on HB COSTAR plate, 200 ng/well
The protease: Ni-13 (F21) diluted 1:300 in the enzyme stock buffer
The protease inhibitor: diluted to 1 mM in the enzyme stock buffer
A substrate polypeptide was prepared having an anchor region (protein A), a linker, two protease target sites of NS4B/5A, another linker, and a FLAG epitope tag. The target polypeptide was expressed in sufficient quantities to conduct the assay.
[…] The plate was washed five times with wash buffer. The inhibitor, if any, was pre-incubated (diluted to 1 uM) with HCV protease, NS4A (0.2 uM) for one hour at room temperature. Peptide 4A, a co-factor of the NS3 HCV protease was added in different concentrations to all wells containing the protease mixture (20X concentration is 4 μM). The above mixture was transferred to the plate coated with IgG-4B/5A complex and incubated overnight at room temperature (about 20° C. −25° C.). The final concentration of the NS4A in each well was 4 μM. The plate was washed five times with wash buffer. Mouse anti-FLAG monoclonal antibody in the amount of 200 μl (1:200d from stock solution) was added to the designated wells and incubated one hour at 37° C. The plate was washed five times with wash buffer. Affinity purified goat anti-mouse (H+L)-HRP (Fab′)2 conjugate (1:5000d) in the amount of 200 μl was added to all the reaction wells except the blank well and incubated one hour at 37° C. The plate was washed five times with wash buffer. Then the plate was developed with OPD substrate for 30 minutes at room temperature. The plate was read with a microtiter plate reader at 490/620 nm.

[4] = molecular target: T1, HCV protease; experiment: Short incubation time, NS5A/5B substrate HCV protease inhibitor screen; settings: control setup; duplicates; listed as control 4
Description: Using a Short Incubation Time and NS5A/5B as a Substrate to Screen HCV Protease Inhibitors
A target polypeptide was prepared having an anchor region (protein A) molecule, a linker, a protease target site of HCV NS5A/5B, another linker, and a FLAG epitope tag region. The target polypeptide was expressed in sufficient quantities to conduct the assay.
The inhibitor was pre-incubated (diluted to 1 μM) with HCV protease (0.2 μM) for 1 hour at room temperature. A solution of NS5A/5B substrate (20 μg/well) was added to the pre-incubated protease and protease inhibitor mixture, and the total mixture was incubated for 15 minutes. The mixture was transferred to a human IgG coated plate and incubated for 1 hour at 37° C. The plate was washed five times with wash buffer.
Two hundred microliter of mouse anti-FLAG monoclonal antibody (1:200d from stock solution) was added to the designated wells and incubated for 1 hour at 37° C. The plate was washed five times with wash buffer. Affinity purified goat anti-mouse (H+L)-HRPO (Fab′)2 conjugate (1:5000d) in the amount of 200 μl was added to all the reaction wells except the blank well and incubate 1 hour at 37° C. The plate was washed five times with wash buffer. The plate was developed with OPD substrate for 30 minutes at room temperature. The plate was read with a microtiter plate reader at 490/620 nm.

[5] = protease, substrate and inhibitor preincubated overnight, pools 1:100 D

T1 sequence (P26664 1027-1657): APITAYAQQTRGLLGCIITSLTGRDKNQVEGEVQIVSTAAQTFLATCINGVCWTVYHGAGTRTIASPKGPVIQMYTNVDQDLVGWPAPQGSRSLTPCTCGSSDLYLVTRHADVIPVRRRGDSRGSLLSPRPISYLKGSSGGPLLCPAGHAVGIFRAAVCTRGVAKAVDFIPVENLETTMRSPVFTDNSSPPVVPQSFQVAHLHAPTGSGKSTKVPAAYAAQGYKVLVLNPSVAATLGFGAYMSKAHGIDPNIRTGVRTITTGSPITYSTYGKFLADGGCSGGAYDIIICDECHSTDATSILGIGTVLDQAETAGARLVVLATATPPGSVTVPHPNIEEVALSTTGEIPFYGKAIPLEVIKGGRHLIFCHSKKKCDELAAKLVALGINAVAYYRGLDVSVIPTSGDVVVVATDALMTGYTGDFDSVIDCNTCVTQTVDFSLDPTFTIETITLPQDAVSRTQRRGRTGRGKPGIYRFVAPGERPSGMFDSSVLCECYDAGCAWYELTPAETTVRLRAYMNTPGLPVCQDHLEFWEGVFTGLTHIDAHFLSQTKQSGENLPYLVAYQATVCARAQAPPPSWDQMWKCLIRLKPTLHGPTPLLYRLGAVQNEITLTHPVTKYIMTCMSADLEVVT
T2 sequence (P26664 1027-1657): as above

For `O=c1oc(Cl)c(Cl)c2ccccc12` [DCIC, di-chloro-iso-coumarin], the “OD w/ DMSO 1 μl” value ([1]; with DMSO 1 μl) was 2.596, the “OD w/o DMSO” value ([1]; without DMSO) was 2.915 and the OD ([2]; preincubation of protease, substrate and inhibitor overnight, pro A-NS5 10 μg/ml, protease 1:100 D) was 1.578. For the same molecule, the OD ([2]; preincubation of protease, substrate and inhibitor overnight, pro A-NS5 10 μg/ml, protease 1:200 D) was 1.458, the OD ([2]; preincubation of protease, substrate and inhibitor overnight, pro A-NS5 10 μg/ml, protease 1:500 D) was 1.083 and the “OD, Exp. 1” value [2, 5] was 1.235. For the same molecule, the “OD, Exp. 2” value [2, 5] was 0.768, the OD ([2]; substrate and protease incubated for 2 hours, pro A-NS5 10 μg/ml, protease 1:100 D) was 1.137 and the OD ([2]; substrate and protease incubated for 2 hours, pro A-NS5 10 μg/ml, protease 1:200 D) was 1.235. For the same molecule, the OD ([2]; substrate and protease incubated for 2 hours, pro A-NS5 10 μg/ml, protease 1:500 D) was 0.503, the OD ([2]; substrate and protease incubated for 2 hours, proA-NS5 2 μg/ml, protease 1:100 D) was 0.627 and the OD ([2]; substrate and protease incubated for 2 hours, proA-NS5 2 μg/ml, protease 1:200 D) was 0.631. It also gave an OD ([2]; substrate and protease incubated for 2 hours, proA-NS5 2 μg/ml, protease 1:500 D) of 0.545, an OD ([2]; substrate and protease incubated overnight, pro A-NS5 10 μg/ml, protease 1:100 D) of 0.899 and an OD ([2]; substrate and protease incubated overnight, pro A-NS5 10 μg/ml, protease 1:200 D) of 0.998. For the same molecule, the OD ([2]; substrate and protease incubated overnight, pro A-NS5 10 μg/ml, protease 1:500 D) was 0.887, the OD ([2]; substrate and protease incubated overnight, proA-NS5 2 μg/ml, protease 1:100 D) was 0.449 and the OD ([2]; substrate and protease incubated overnight, proA-NS5 2 μg/ml, protease 1:200 D) was 0.467. The OD ([2]; substrate and protease incubated overnight, proA-NS5 2 μg/ml, protease 1:500 D) was 0.328, the “OD of the reaction product” value ([3]; substrate 4B/5A 5 μg/well, 10X peptide 4A) was 1.435 and 1.328 and the “OD of the reaction product” value ([3]; substrate 4B/5A 5 μg/well, 20X peptide 4A) was 1.374 and 1.373. The “OD of the reaction product” value ([3]; substrate 4B/5A 5 μg/well, no peptide 4A) was 1.400 and 1.491, the “OD of the reaction product” value ([3]; substrate 4B/5A 10 μg/well, 10X peptide 4A) was 1.729 and 1.715 and the “OD of the reaction product” value ([3]; substrate 4B/5A 10 μg/well, 20X peptide 4A) was 1.584 and 1.690. For the same molecule, the “OD of the reaction product” value ([3]; substrate 4B/5A 10 μg/well, no peptide 4A) was 1.769 and 1.686, the “OD, 15 minutes preincubation” value [4] was 1.563 and 1.590 and the “OD, 1 hour preincubation” value [4] was 1.991 and 2.152.
